What follows are compounds tested against T1, CFTR (F508del/MF-HBE cells) (Homo sapiens, UniProt P13569, DEL508-508) (assay: Ussing chamber assay of CFTR-mediated short-circuit currents (identification of potentiator compounds)). Details: CFTR-mediated ISC in F508del/MF-HBE cells; incubated 18-24 hours at 37° C. with 10 μM (14S)-8-[3-(2-{dispiro[2.0.2.1]heptan-7-yl}ethoxy)-1H-pyrazol-1-yl]-...-2,2,4-trione, 20% human serum.
T1 construct: human bronchial epithelial (HBE) cells derived from CF subjects heterozygous for F508del and a minimal function CFTR mutation; endogenous in cells; host or cells: primary human bronchial epithelial cells from CF subjects (F508del/MF genotype)
Format: cell-based
Outline: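 Short-circuit current was voltage-clamped at 0 mV and 37 °C in pH 7.4 HEPES buffers, with amiloride (30 μM) on the apical side. The CFTR component was defined as forskolin (20 μM) peak minus residual current after BPO/GlyH-101/CFTRinh-172 at 20 μM each. Cells had been pretreated 18–24 h with potentiator concentrations and 10 μM corrector in 20% human serum, kept throughout the measurement.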

T1 sequence (P13569 with tags, fused parts or gaps DEL508-508): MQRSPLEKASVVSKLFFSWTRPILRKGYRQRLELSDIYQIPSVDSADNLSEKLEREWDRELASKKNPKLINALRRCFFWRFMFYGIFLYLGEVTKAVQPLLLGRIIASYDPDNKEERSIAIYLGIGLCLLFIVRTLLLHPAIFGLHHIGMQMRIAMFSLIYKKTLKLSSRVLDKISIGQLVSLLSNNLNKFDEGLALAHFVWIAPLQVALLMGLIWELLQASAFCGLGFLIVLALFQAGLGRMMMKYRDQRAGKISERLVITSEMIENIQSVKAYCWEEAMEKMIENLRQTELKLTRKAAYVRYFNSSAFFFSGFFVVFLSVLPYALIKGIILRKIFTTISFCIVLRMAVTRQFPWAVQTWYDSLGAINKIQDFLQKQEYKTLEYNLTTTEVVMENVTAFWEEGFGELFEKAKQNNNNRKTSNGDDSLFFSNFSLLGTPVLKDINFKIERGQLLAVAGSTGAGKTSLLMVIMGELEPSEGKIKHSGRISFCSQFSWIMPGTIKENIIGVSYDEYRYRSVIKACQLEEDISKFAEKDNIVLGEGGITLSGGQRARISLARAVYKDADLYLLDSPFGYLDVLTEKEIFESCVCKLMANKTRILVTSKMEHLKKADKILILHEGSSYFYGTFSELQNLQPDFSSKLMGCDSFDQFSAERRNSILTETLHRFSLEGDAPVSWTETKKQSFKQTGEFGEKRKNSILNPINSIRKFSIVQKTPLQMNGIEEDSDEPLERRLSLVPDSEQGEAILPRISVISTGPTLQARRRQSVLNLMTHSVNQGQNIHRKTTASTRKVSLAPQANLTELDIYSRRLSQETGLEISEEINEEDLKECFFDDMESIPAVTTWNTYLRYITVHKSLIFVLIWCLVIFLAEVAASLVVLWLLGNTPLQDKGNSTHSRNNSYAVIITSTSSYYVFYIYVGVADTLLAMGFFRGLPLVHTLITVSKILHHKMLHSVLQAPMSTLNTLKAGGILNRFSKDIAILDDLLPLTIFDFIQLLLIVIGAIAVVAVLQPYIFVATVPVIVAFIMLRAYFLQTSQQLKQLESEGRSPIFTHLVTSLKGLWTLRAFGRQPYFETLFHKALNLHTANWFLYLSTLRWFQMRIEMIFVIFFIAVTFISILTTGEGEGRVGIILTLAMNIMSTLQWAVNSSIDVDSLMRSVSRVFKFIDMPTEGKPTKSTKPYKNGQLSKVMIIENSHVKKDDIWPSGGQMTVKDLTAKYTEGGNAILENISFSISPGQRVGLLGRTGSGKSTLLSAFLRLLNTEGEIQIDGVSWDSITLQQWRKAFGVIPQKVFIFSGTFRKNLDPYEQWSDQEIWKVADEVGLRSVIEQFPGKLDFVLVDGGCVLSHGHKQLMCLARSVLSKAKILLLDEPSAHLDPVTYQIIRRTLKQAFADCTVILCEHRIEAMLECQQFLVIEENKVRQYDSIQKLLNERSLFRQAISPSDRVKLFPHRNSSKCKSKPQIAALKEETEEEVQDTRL

EC50	Compound
> 1000 nM	CP(C)(=O)c1cc(N)c2nc1N1CCC[C@H]1CCCCCC(O)(C(F)(F)F)C1=NN=C2O1 (single isomer, unassigned) [Compound 98]
> 1000 nM	CP(C)(=O)c1cc(N)c2nc1N1CCC[C@H]1CCCCCC(O)(C(F)(F)F)C1=NN=C2O1 (single isomer, unassigned) [Compound 99]
500 to 1000 nM	Nc1cc(C(F)(F)F)c2nc1-c1nnc(o1)C(O)(CO)CCCCC[C@@H]1CCCN21 (single isomer, unassigned) [Compound 100]
< 500 nM	Nc1cc(C(F)(F)F)c2nc1-c1nnc(o1)C(O)(CO)CCCCC[C@@H]1CCCN21 (single isomer, unassigned) [Compound 101]
< 500 nM	Nc1cc(C(F)(F)F)c2nc1-c1nnc(o1)C(O)(C(F)(F)F)CCCCCC(CO)N2 (single isomer, unassigned) [Compound 102, 17-amino-12-(hydroxymethyl)-6,15-bis(trifluoromethyl)-19-oxa-3,4,13,18-tetrazatricyclo[12.3.1.12,5]nonadeca-1(18),2,4,14,16-pentaen-6-ol]
< 500 nM	Nc1cc(C(F)(F)F)c2nc1-c1nnc(o1)C(O)(C(F)(F)F)CCCCCC(CO)N2 (single isomer, unassigned) [Compound 103, 17-amino-12-(hydroxymethyl)-6,15-bis(trifluoromethyl)-19-oxa-3,4,13,18-tetrazatricyclo[12.3.1.12,5]nonadeca-1(18),2,4,14,16-pentaen-6-ol]
< 500 nM	Nc1cc(C(F)(F)F)c2nc1-c1nnc(o1)C(O)(C(F)(F)F)CCCCCC(CO)N2 (single isomer, unassigned) [Compound 104, 17-amino-12-(hydroxymethyl)-6,15-bis(trifluoromethyl)-19-oxa-3,4,13,18-tetrazatricyclo[12.3.1.12,5]nonadeca-1(18),2,4,14,16-pentaen-6-ol]
> 1000 nM	Nc1cc(C(F)(F)F)c2nc1-c1nnc(o1)C(O)(C(F)(F)F)CCCCCC(CO)N2 (single isomer, unassigned) [Compound 105, 17-amino-12-(hydroxymethyl)-6,15-bis(trifluoromethyl)-19-oxa-3,4,13,18-tetrazatricyclo[12.3.1.12,5]nonadeca-1(18),2,4,14,16-pentaen-6-ol]
< 500 nM	Nc1cc(C(F)(F)F)c2nc1-c1nnc(o1)C(O)(C(F)(F)F)CCCCCCC(=O)N2 (single isomer, unassigned) [Compound 106, 18-Amino-6-hydroxy-6,16-bis(trifluoromethyl)-20-oxa-3,4,14,19-tetrazatricyclo[13.3.1.12,5]icosa-1(19),2,4,15,17-pentaen-13-one]
> 1000 nM	Nc1cc(C(F)(F)F)c2nc1-c1nnc(o1)C(O)(C(F)(F)F)CCCCCCC(=O)N2 (single isomer, unassigned) [Compound 107, 18-amino-6-hydroxy-6,16-bis(trifluoromethyl)-20-oxa-3,4,14,19-tetrazatricyclo[13.3.1.12,5]icosa-1(19),2,4,15,17-pentaen-13-one]
< 500 nM	Nc1cc(C(F)(F)F)c2nc1-c1nnc(o1)C(O)(C(F)(F)F)CCCCCC(=O)N2 (single isomer, unassigned) [Compound 108, 17-amino-6-hydroxy-6,15-bis(trifluoromethyl)-19-oxa-3,4,13,18-tetrazatricyclo[12.3.1.12,5]nonadeca-1(18),2,4,14,16-pentaen-12-one]
> 1000 nM	Nc1cc(C(F)(F)F)c2nc1-c1nnc(o1)C(O)(C(F)(F)F)CCCCCC(=O)N2 (single isomer, unassigned) [Compound 109, 17-amino-6-hydroxy-6,15-bis(trifluoromethyl)-19-oxa-3,4,13,18-tetrazatricyclo[12.3.1.12,5]nonadeca-1(18),2,4,14,16-pentaen-12-one]
< 500 nM	Nc1cc(C(F)(F)F)c2nc1-c1nnc(o1)C(O)(C(F)(F)F)CCCCCC1CCS(=O)(=O)N21 (single isomer, unassigned) [Compound 110, 20-amino-6-hydroxy-6,18-bis(trifluoromethyl)-22-oxa-15λ6-thia-3,4,16,21-tetraazatetracyclo[15.3.1.12,5.012,16]docosa-1(21),2,4,17,19-pentaene-15,15-dione]
> 1000 nM	Nc1cc(C(F)(F)F)c2nc1-c1nnc(o1)C(O)(C(F)(F)F)CCCCCC1CCS(=O)(=O)N21 (single isomer, unassigned) [Compound 111, 20-amino-6-hydroxy-6,18-bis(trifluoromethyl)-22-oxa-15λ6-thia-3,4,16,21-tetraazatetracyclo[15.3.1.12,5.012,16]docosa-1(21),2,4,17,19-pentaene-15,15-dione]
500 to 1000 nM	Nc1cc(C(F)(F)F)c2nc1-c1nnc(o1)C(O)(C(F)(F)F)CCCCCC1CCS(=O)(=O)N21 (single isomer, unassigned) [Compound 112, 20-amino-6-hydroxy-6,18-bis(trifluoromethyl)-22-oxa-15λ6-thia-3,4,16,21-tetraazatetracyclo[15.3.1.12,5.012,16]docosa-1(21),2,4,17,19-pentaene-15,15-dione]
> 1000 nM	Nc1cc(C(F)(F)F)c2nc1-c1nnc(o1)C(O)(C(F)(F)F)CCCCCC1CCS(=O)(=O)N21 (single isomer, unassigned) [Compound 113, 20-amino-6-hydroxy-6,18-bis(trifluoromethyl)-22-oxa-15λ6-thia-3,4,16,21-tetraazatetracyclo[15.3.1.12,5.012,16]docosa-1(21),2,4,17,19-pentaene-15,15-dione]
< 500 nM	COc1cc(N)c2nc1N1CCC[C@H]1CCCCCC(O)(C(F)(F)F)C1=NN=C2O1 (single isomer, unassigned) [Compound 114]
> 1000 nM	COc1cc(N)c2nc1N1CCC[C@H]1CCCCCC(O)(C(F)(F)F)C1=NN=C2O1 (single isomer, unassigned) [Compound 115]
< 500 nM	Nc1cc(C(F)(F)F)c2nc1-c1nnc(o1)C(O)(C(F)(F)F)CCCCC[C@@H]1COCC(=O)N21 (single isomer, unassigned) [Compound 116]
> 1000 nM	Nc1cc(C(F)(F)F)c2nc1-c1nnc(o1)C(O)(C(F)(F)F)CCCCC[C@@H]1COCC(=O)N21 (single isomer, unassigned) [Compound 117]
< 500 nM	Nc1cc(C(F)(F)F)c2nc1-c1nnc(o1)C(O)(C(F)(F)F)CCCCCC(c1ccccc1)N2 (single isomer, unassigned) [Compound 119, 17-amino-12-phenyl-6,15-bis(trifluoromethyl)-19-oxa-3,4,13,18-tetrazatricyclo[12.3.1.12,5]nonadeca-1(18),2,4,14,16-pentaen-6-ol]
< 500 nM	Nc1cc(C(F)(F)F)c2nc1-c1nnc(o1)C(O)(C(F)(F)F)CCCCCC(c1ccccc1)N2 (single isomer, unassigned) [Compound 120, 17-amino-12-phenyl-6,15-bis(trifluoromethyl)-19-oxa-3,4,13,18-tetrazatricyclo[12.3.1.12,5]nonadeca-1(18),2,4,14,16-pentaen-6-ol]
> 1000 nM	Nc1cc(C(F)(F)F)c2nc1-c1nnc(o1)C(O)(C(F)(F)F)CCCCCC(c1ccccc1)N2 (single isomer, unassigned) [Compound 122, 17-amino-12-phenyl-6,15-bis(trifluoromethyl)-19-oxa-3,4,13,18-tetrazatricyclo[12.3.1.12,5]nonadeca-1(18),2,4,14,16-pentaen-6-ol]
